Experimental data from PMC4784921, “Antioxidant Activity and α-Glucosidase Inhibitory Activities of the Polycondensate of Catechin with Glyoxylic Acid” (PLoS ONE, 2016).
≈ marks a conversion by molar mass, not a printed value.

Molecular target: T1, α-glucosidase (from Saccharomyces cerevisiae)
T1 construct: gene MAL12; commercial enzyme from Sigma (St. Louis, MO)
Test: absorbance at […] nm, pNP-G hydrolysis
Assay type: biochemical
Settings: pNP-G substrate (1 mL of 1 mM), 0.1 M PBS pH 6.9, 37°C, 10 min preincubation; mixed noncompetitive and anticompetitive

Oc1cc(O)c2c(c1)O[C@H](c1ccc(O)c(O)c1)[C@@H](O)C2 [catechin]
IC50: 239.27 µg/mL (≈ 824 µM)
